# Numbering of substitutions follows the chain as printed. “And” between values parts separate entries of the source, which are not always exact repeats. Identical values can stand only once. Like-named read-outs stand apart in the source and are kept apart here.
# What was measured:
# hGPR132a [1] = target: T1, hGPR132a (Homo sapiens, UniProt Q9UNW8); format: cell-based; conditions: for pEC50, Human GPR132a, Yeast: mean ± SD, IA = inactive, bound = top concentration tested; for Emax, Human GPR132a, Yeast: normalized to the effect of NPGly
# T1 sequence (Q9UNW8 1-380): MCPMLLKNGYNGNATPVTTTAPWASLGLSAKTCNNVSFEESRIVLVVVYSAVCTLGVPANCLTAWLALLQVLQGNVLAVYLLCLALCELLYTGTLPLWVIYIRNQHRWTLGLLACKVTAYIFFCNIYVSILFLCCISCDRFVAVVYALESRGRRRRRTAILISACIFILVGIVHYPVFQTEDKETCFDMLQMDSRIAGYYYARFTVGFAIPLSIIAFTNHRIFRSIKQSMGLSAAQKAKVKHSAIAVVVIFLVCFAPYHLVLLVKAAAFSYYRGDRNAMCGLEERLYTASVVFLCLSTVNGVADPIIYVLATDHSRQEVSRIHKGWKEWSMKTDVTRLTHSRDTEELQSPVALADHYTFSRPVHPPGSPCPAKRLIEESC
# hGPR132a [2] = target: T1, hGPR132a; assay: Ca2+ microfluorimetry in RBL‐hGPR132a cells; format: cell-based; conditions: 10 µmol/L ligand, mean ± SE
# Mouse GPR132 = target: T2, Mouse GPR132 (Mus musculus, UniProt Q9Z282); assay: β‐arrestin association; format: cell-based; conditions: for pEC50, Mouse GPR132, β‐arrestin: mean ± SD; for Emax, Mouse GPR132, β‐arrestin: normalized to the effect of SB‐583831
# T2 sequence (Q9Z282 1-382): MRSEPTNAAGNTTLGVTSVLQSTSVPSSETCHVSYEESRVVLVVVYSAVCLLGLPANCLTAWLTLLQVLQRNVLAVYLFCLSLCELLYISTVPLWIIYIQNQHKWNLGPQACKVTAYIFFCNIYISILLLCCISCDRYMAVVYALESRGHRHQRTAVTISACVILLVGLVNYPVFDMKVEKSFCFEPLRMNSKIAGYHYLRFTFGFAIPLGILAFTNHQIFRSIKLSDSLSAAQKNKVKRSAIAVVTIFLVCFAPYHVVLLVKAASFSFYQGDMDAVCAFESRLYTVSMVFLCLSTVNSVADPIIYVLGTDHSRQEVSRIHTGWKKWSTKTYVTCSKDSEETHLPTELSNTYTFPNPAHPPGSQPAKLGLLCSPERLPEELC
# Rat GPR132 = Rat GPR132 (Rattus norvegicus, UniProt A0A8I6A964); assay: Yeast pheromone-response pathway reporter assay, yeast expressing rGPR132; format: cell-based; conditions: for pEC50, Rat GPR132, Yeast: mean ± SD; for Emax, Rat GPR132, Yeast: normalized to the effect of 9‐HODE
# parental RBL cells = assay: Ca2+ microfluorimetry in parental RBL cells; format: cell-based, rat; conditions: 10 µmol/L ligand, mean ± SE
# hGPR132a Y200A = target: T3, hGPR132a Y200A (Homo sapiens, UniProt Q9UNW8, Y200A); assay: Yeast assay, hGPR132a mutant Y200A; conditions: mean ± SD
# T3 sequence (Q9UNW8 1-380 Y200A): T1 sequence (Q9UNW8 1-380) with Y200A
# hGPR132a [3] = target: T1, hGPR132a; assay: β‐arrestin association; format: cell-based; conditions: for pEC50, Human GPR132a, β‐arrestin: mean ± SD; for Emax, Human GPR132a, β‐arrestin: normalized to the effect of SB‐583831
# CB2 = conditions: tested up to 10 µmol/L; cited from earlier work
# human CB2 = human CB2 (Homo sapiens, UniProt P34972); assay: Yeast assay, specificity receptor human CB2; format: cell-based
# hGPR132a R203A = target: T4, hGPR132a R203A (Homo sapiens, UniProt Q9UNW8, R203A); assay: Yeast assay, hGPR132a mutant R203A; conditions: mean ± SD
# T4 sequence (Q9UNW8 1-380 R203A): T1 sequence (Q9UNW8 1-380) with R203A
# hGPR132a [4] = target: T1, hGPR132a; assay: Yeast assay hGPR132a, antagonist mode / Schild analysis; format: cell-based; conditions: agonist SB‐583831
# Sequence of Rat GPR132 (A0A8I6A964 1-384): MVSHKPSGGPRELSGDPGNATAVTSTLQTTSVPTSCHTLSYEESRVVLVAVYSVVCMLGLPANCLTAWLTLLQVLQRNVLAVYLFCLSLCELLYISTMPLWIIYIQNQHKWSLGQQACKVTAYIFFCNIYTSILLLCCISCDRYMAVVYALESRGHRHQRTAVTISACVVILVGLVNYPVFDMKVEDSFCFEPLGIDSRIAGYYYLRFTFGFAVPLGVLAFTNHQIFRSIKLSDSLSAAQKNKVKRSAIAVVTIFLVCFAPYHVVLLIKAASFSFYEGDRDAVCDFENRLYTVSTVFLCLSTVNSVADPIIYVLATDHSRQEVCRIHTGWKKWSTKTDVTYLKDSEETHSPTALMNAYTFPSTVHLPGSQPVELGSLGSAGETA
# Sequence of human CB2 (P34972 whole entry): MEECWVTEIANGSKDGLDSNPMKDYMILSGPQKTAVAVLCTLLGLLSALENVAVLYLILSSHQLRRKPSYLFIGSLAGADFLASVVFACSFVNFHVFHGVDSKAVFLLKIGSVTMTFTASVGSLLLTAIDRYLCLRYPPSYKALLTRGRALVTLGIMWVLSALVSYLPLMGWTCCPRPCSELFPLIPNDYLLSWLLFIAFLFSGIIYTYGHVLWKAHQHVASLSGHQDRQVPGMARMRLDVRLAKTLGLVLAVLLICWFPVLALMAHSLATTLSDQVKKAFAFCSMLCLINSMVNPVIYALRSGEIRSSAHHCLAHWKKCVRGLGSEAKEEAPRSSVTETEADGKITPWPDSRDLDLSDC
Structure (SMILES),"pEC50, Human GPR132a, Yeast (hGPR132a [1])","pEC50, Mouse GPR132, β‐arrestin (Mouse GPR132)","Emax, Mouse GPR132, β‐arrestin (Mouse GPR132) [%]","pEC50, Rat GPR132, Yeast (Rat GPR132)","Emax, Rat GPR132, Yeast (Rat GPR132) [%]","Emax, Human GPR132a, Yeast (hGPR132a [1])","pEC50, Human GPR132a, β‐arrestin (hGPR132a [3])","Emax, Human GPR132a, β‐arrestin (hGPR132a [3])",further results
"CCCCC/C=C\C=C\C(O)CCCCCCCC(=O)O (stereo not shown) [9‐HODE, 9‐hydroxyoctadecadienoic acid]",5.9 ± 0.14 (4),5.6 ± 0.23 (5),97 ± 6,6.2 ± 0.12 (5),100,–,–,–,"Ca2+ transient, peak response (hGPR132a [2]): 0.122 ± 0.016 ratio units; Ca2+ transient, peak response (parental RBL cells): 0.023 ± 0.003 ratio units"
"CCCCCCC(C)(C)c1ccc([C@@H]2C[C@H](O)CC[C@H]2CCCO)c(O)c1 [CP‐55,940]",–,–,–,–,–,full agonists,–,–,"EC50 (hGPR132a [1]): 3.16 µM; Emax (hGPR132a [1]; read-out: Emax, Human GPR132a, Yeast): 102 ± 3%; pEC50, Y200A (hGPR132a Y200A): abolished; EC50 (Rat GPR132): > 3.16 µM"
"CCCCC/C=C\C/C=C\CCCCCCCC(N)=O [Linoleamide, linoleamide]",5.8 ± 0.01 (3),<5 (1),–,5.9 ± 0.21 (2),37 ± 5,79 ± 11%,5.5 (1),22%,–
CCCCC/C=C\C/C=C\CCCCCCCC(=O)O [Linoleic acid],–,–,–,–,–,–,–,–,EC50 (hGPR132a [1]): > 100 µM; agonist activity at hGPR132a in yeast (hGPR132a [1]; tested up to 100 µmol/L): no detectable agonist activity; EC50 (hGPR132a [3]): > 10 µM
"CCCCC/C=C\C/C=C\C/C=C\C/C=C\CCCC(=O)NCC(=O)O [NAGly, N‐arachidonoylglycine]",<4.5 (3),–,–,5.3 ± 0.09 (4),87 ± 12,38%,–,–,"binding to CB2 (CB2): does not bind; Emax, CB2, yeast (human CB2): 17±2%; pEC50, CB2, yeast (human CB2): 5.6 ± 0.3"
"CCCCC/C=C\C/C=C\C/C=C\C/C=C\CCCC(=O)N[C@@H](Cc1ccc(O)cc1)C(=O)O [NATyr, N‐arachidonyltyrosine]",–,–,–,<4 (3),–,–,–,–,–
"CC/C=C\C/C=C\C/C=C\C/C=C\C/C=C\C/C=C\CCC(=O)NCC(=O)O [NDGly, N‐docosahexanoylglycine]",<4.4 (4),–,–,–,–,33%,<5 (2),–,–
"CCCCC/C=C\C/C=C\CCCCCCCC(=O)NCC(=O)O [NLGly, N‐linoleoylglycine]",5.8 ± 0.08 (3),5.3 (1),40,6.5 ± 0.36 (4),68 ± 7,84 ± 6%,5.5 ± 0.23 (2),39±4% and 38 ± 4%,"Ca2+ transient, peak response (hGPR132a [2]): 0.138 ± 0.03 ratio units; pEC50, R203A (hGPR132a R203A): abolished responses; Ca2+ transient, peak response (parental RBL cells): 0.040 ± 0.008 ratio units"
"CCCCCCCC/C=C\CCCCCCCC(=O)NCC(=O)O [NOGly, N‐oleoylglycine]",5.1 ± 0.24 (3),5.3 ± 0.05 (2),44 ± 10,–,–,95 ± 6%,5.6 ± 0.18 (2),29 ± 15%,"pEC50, R203A (hGPR132a R203A): eliminated the activity"
"CCCCCCCC/C=C\CCCCCCCC(=O)N[C@@H](CO)C(=O)O [NOSer, N‐oleoylserine]",5.8 ± 0.07 (4),–,–,–,–,21 ± 5%,–,–,–
"CCCCCCCCCCCCCCCC(=O)NCC(=O)O [NPGly, N‐palmitoylglycine]",6.2 ± 0.16 (7),<5 (2),11,7.0 ± 0.12 (4),53 ± 14,–,<5 (3),14%,"pEC50, R203A (hGPR132a R203A): abolished responses"
"CCCCCCCCCCCCCCCCCC(=O)NCC(=O)O [NSGly, N‐stereoylglycine]",5.1 ± 0.08 (3),<5 (1),–,–,–,80 ± 4%,5.4 (1),23%,–
CCCc1nc2c(C)cc(-c3nc4ccccc4n3C)cc2n1Cc1ccc(-c2ccccc2C(=O)O)cc1 [telmisartan],–,–,–,–,–,–,–,–,Schild Hill slope nH (hGPR132a [4]): 1.9

# From paper PMC6868653 (Pharmacology Research & Perspectives, 2019)
